Data taken from ChEMBL document CHEMBL3351435, “New pyrrole derivatives with potent tubulin polymerization inhibiting activity as anticancer agents including hedgehog-dependent cancer” (J Med Chem, 2014).
The source made the active and inactive calls. The rule behind the calls is not given here.

Experiments:
[1] = tested on: RD; assay: Cell cycle arrest in human RD cells assessed as rounded cells at 500 nM after 24 hrs by propidium iodide staining-based flow cytometry; type: functional
[2] = tested on: HepG2; assay: Cell cycle arrest in human HepG2 cells assessed as accumulation at G2/M phase at 500 nM after 24 hrs by propidium iodide staining-based flow cytometry; type: functional
[3] = tested on: RD; assay: Cell cycle arrest in human RD cells assessed as accumulation at G2/M phase at 500 nM after 24 hrs by propidium iodide staining-based flow cytometry; type: functional
[4] = tested on: RD; assay: Cell cycle arrest in human RD cells at 500 nM incubated for 24 hrs followed by compound washout measured after 24 hrs; type: functional, cell-based
[5] = tested on: RD; assay: Cytotoxicity against human RD cells assessed as growth inhibition after 48 hrs by MTT method; type: functional, cell-based
[6] = tested on: HepG2; assay: Induction of apoptosis in human HepG2 cells after 48 hrs by annexin-V/propidium iodide staining-based flow cytometry; type: functional, cell-based
[7] = tested on: HepG2; assay: Cell cycle arrest in human HepG2 cells at 500 to 2000 nM incubated for 24 hrs followed by compound washout measured after 24 hrs; type: functional, cell-based
[8] = Cell cycle arrest in human PC3 cells assessed as accumulation at G2/M phase at 500 nM after 24 hrs by propidium iodide staining-based flow cytometry; type: functional; settings: PC-3
[9] = Cell cycle arrest in human PC3 cells at 500 to 2000 nM incubated for 24 hrs followed by compound washout measured after 24 hrs; type: functional, cell-based; settings: PC-3
[10] = tested on: RD; assay: Cell cycle arrest in human RD cells at 1000 to 2000 nM incubated for 24 hrs followed by compound washout measured after 24 hrs; type: functional, cell-based
[11] = Cell cycle arrest in human PC3 cells assessed as rounded cells at 500 nM after 24 hrs by propidium iodide staining-based flow cytometry; type: functional; settings: PC-3
[12] = tested on: HepG2; assay: Cell cycle arrest in human HepG2 cells assessed as rounded cells at 500 nM after 24 hrs by propidium iodide staining-based flow cytometry; type: functional
[13] = tested on: HeLa; assay: Cell cycle arrest in human HeLa cells assessed as accumulation at G2/M phase at 100 nM by propidium iodide staining-based flow cytometry; type: functional
[14] = tested on: HT-29; assay: Cytotoxicity against human HT-29 cells assessed as growth inhibition after 48 hrs by MTT method; type: functional, cell-based; settings: HT-29, 48 h
[15] = tested on: MCF7; assay: Cell cycle arrest in human MCF7 cells at 100 nM by immunofluorescence microscopy; type: functional, cell-based
[16] = molecular target: Tubulin (Homo sapiens) (UniProt P68371+Q9H4B7+P0DPH7+P68366+Q13509+Q71U36+P04350+Q3ZCM7+P07437+P68363+Q9BQE3+Q6PEY2+Q13885+Q9BVA1+Q9BUF5); assay: Displacement of [3H]colchicine from tubulin (unknown origin) at 5 uM after 10 mins; type: protein-complex assay
[17] = tested on: HeLa; assay: Cell cycle arrest in human HeLa cells by propidium iodide staining-based flow cytometry; type: functional
[18] = tested on: A549; assay: Cytotoxicity against human A549 cells assessed as growth inhibition after 48 hrs by MTT method; type: functional, cell-based; settings: A549, 48 h
[19] = tested on: MCF7; assay: Cytotoxicity against human MCF7 cells after 96 hrs by Giemsa staining-based light microscopy; type: functional, cell-based; settings: MCF7, 96 h
[20] = tested on: HeLa; assay: Cell cycle arrest in human HeLa cells assessed as accumulation at G2/M phase at 20 nM by propidium iodide staining-based flow cytometry; type: functional
[21] = Cytotoxicity against human HCT116 cells assessed as growth inhibition after 48 hrs by MTT method; type: functional, cell-based; settings: HCT-116, 48 h
[22] = tested on: HeLa; assay: Induction of apoptosis in human HeLa cells assessed as short, aberrantly shaped, tripolar or multipolar microtubule at 100 nM by immunofluorescence analysis; type: functional, cell-based
[23] = tested on: NCI/ADR-RES; assay: Cytotoxicity against human NCI/ADR-RES cells assessed as growth inhibition after 96 hrs by Giemsa staining-based light microscopy; type: functional, cell-based
[24] = tested on: HeLa; assay: Cell cycle arrest in human HeLa cells assessed as mitotic rounded-up phenotype at 100 nM by light microscopy; type: functional, cell-based
[25] = cells; settings: Homo sapiens, OVCAR-8, 96 h
Description: Cytotoxicity against human OVCAR8 cells assessed as growth inhibition after 96 hrs by Giemsa staining-based light microscopy

[26] = molecular target: Tubulin; assay: Inhibition of tubulin (unknown origin) polymerization incubated 15 mins prior to GTP addition by spectrophotometry; type: protein-complex assay, Homo sapiens
[27] = tested on: MCF7; assay: Cell cycle arrest in human MCF7 cells expressing exogenous caspase-3 at 100 nM by immunofluorescence microscopy; type: functional, cell-based
[28] = Cytotoxicity against human MESSA cells assessed as growth inhibition after 72 hrs by CellTitre-Glo assay; type: functional, cell-based; settings: MES-SA
[29] = tested on: HeLa; assay: Cytotoxicity against human HeLa cells assessed as growth inhibition after 48 hrs by MTT method; type: functional, cell-based
[30] = tested on: K562; assay: Cytotoxicity against human K562 cells assessed as growth inhibition after 96 hrs by Giemsa staining-based light microscopy; type: functional, cell-based; settings: K562, 96 h
[31] = tested on: K562; assay: Cell cycle arrest in human K562 cells assessed as mitotic index at 10 times IC50 (reference value: […] +/- […]%); type: functional
[32] = tested on: HepG2; assay: Induction of apoptosis in human HepG2 cells at 500 to 2000 nM after 48 hrs by annexin-V/propidium iodide staining-based flow cytometry; type: functional, cell-based
[33] = tested on: PC-3; assay: Induction of apoptosis in human PC3 cells after 48 hrs by annexin-V/propidium iodide staining-based flow cytometry; type: functional, cell-based
[34] = Cytotoxicity against human MESSA/DX5 cells assessed as growth inhibition after 72 hrs by CellTitre-Glo assay; type: functional, cell-based; settings: MES-SA/Dx5, 72 h
[35] = tested on: HepG2; assay: Cytotoxicity against human HepG2 cells assessed as growth inhibition after 48 hrs by MTT method; type: functional, cell-based; settings: HepG2, 48 h
[36] = Cytotoxicity against human D283 cells; type: functional, cell-based
[37] = Inhibition of hedgehog signaling in mouse NIH/3T3 Shh-Light II cells after 48 hrs by luciferase reporter gene assay; type: functional, cell-based
[38] = Cytotoxicity against human PC3 cells assessed as growth inhibition after 48 hrs by MTT method; type: functional, cell-based; settings: PC-3, 48 h
[39] = tested on: RD; assay: Induction of apoptosis in human RD cells at 500 to 2000 nM after 48 hrs by annexin-V/propidium iodide staining-based flow cytometry; type: functional, cell-based
[40] = tested on: HeLa; assay: Induction of apoptosis in human HeLa cells assessed as unstructured tubulin foci at 100 nM by immunofluorescence analysis; type: functional, cell-based
[41] = tested on: K562; assay: Cell cycle arrest in human K562 cells assessed as mitotic index at 0.1 nM (reference value: 3 +/- 1%); type: functional
[42] = tested on: HeLa; assay: Induction of apoptosis in human HeLa cells assessed as short, aberrantly shaped, tripolar or multipolar microtubule microtubule at 20 nM by immunofluorescence analysis; type: functional, cell-based
[43] = cells; settings: Homo sapiens, HCT-15, 72 h
Description: Cytotoxicity against human HCT15 cells assessed as growth inhibition after 72 hrs by CellTitre-Glo assay

[44] = tested on: HeLa; assay: Induction of apoptosis in human HeLa cells assessed as failure of MT elongation at 20 nM by immunofluorescence analysis; type: functional, cell-based
[45] = tested on: HeLa; assay: Induction of apoptosis in human HeLa cells assessed as failure of MT elongation at 100 nM by immunofluorescence analysis; type: functional, cell-based

CC(=O)O[C@H]1C(=O)[C@@]2(C)[C@H]([C@H](OC(=O)c3ccccc3)[C@]3(O)C[C@H](OC(=O)[C@H](O)[C@@H](NC(=O)c4ccccc4)c4ccccc4)C(C)=C1C3(C)C)[C@]1(OC(C)=O)CO[C@@H]1C[C@@H]2O [PACLITAXEL]
Activity [1]: Active
Activity [2]: Active
Activity [3]: Active
Activity [4]: Active
IC50 [5]: 14.2 µM
Activity [6]: Dose-dependent effect
Activity [7]: inactive
Activity [8]: Active
Activity [9]: inactive
Activity [10]: inactive
Activity [11]: Active
Activity [12]: Active

COc1cc(C(=O)c2ccn(-c3ccccc3)c2)cc(OC)c1OC
Activity [13]: Active
IC50 [14]: 90 nM
Activity [15]: inactive
inhibition [16]: 80%
Activity [17]: Dose-dependent effect
IC50 [18]: 200 nM
IC50 [19]: 700 nM
Activity [20]: Active
IC50 [21]: 77 nM
Activity [22]: Active
IC50 [23]: 20 nM
Activity [24]: Active
IC50 [25]: 45 nM
IC50 [26]: 1500 nM
Activity [27]: inactive
IC50 [28]: 56 nM
IC50 [29]: 100 nM

COc1cc(C(=O)c2ccn(-c3cccc(NC(=N)N)c3)c2)cc(OC)c1OC.Cl
IC50 [30]: 25 nM
Activity [1]: Active
Activity [2]: Active
inhibition [16]: 87%
Activity [31]: 71%
Activity [32]: Active
Activity [33]: Dose-dependent effect
Activity [3]: Active
IC50 [19]: 20 nM
IC50 [34]: 16 nM
IC50 [35]: 49.5 nM
IC50 [36]: 675 nM
Activity [4]: Active
inhibition [37]: Dose-dependent effect
IC50 [26]: 1200 nM
IC50 [5]: 0.803 µM
Activity [7]: inactive
Activity [8]: Active
IC50 [38]: 3.9 nM
Activity [39]: Active
Activity [11]: Active
IC50 [28]: 14 nM
Activity [12]: Active

COc1ccc(/C=C\c2cc(OC)c(OC)c(OC)c2)cc1O [COMBRETASTATIN A4]
Activity [40]: Active
Activity [20]: Active
Activity [41]: 65%
Activity [42]: Active
IC50 [43]: 39 nM
Activity [44]: Active
Activity [45]: Active
